Measured values as given in ChEMBL document CHEMBL4371007, “Biased Ligands of G Protein-Coupled Receptors (GPCRs): Structure-Functional Selectivity Relationships (SFSRs) and Therapeutic Potential” (J Med Chem, 2018).
Where a SMILES comes first, the peptide text is derived from it. Bridges are numbered along the chain shown (N, C = ends). [ ]: non-standard residue; d: D form. The star is where a group is joined. X1 = C[C@@H](NC(=O)[C@@H]1CCCN1C(=O)[C@H](Cc1cnc[nH]1)NC[C@H](CCCCN)N*)C(=O)O; Sar = CNCC(=O)O

How the values were obtained:
[1] = biological target: T1, Kappa-type opioid receptor (Rattus norvegicus, UniProt P34975); experiment: Agonist activity at GFP-tagged rat kappa opioid receptor expressed in HEK293 cells assessed as increase in ERK1/2 phosphorylation after 5 mins by Western blot analysis; format: cell-based
[2] = biological target: T1, Kappa-type opioid receptor; experiment: Agonist activity at GFP-tagged rat kappa opioid receptor expressed in HEK293 cells assessed as increase in beta-arrestin mediated p38 phosphorylation after 5 mins by Western blot analysis; format: cell-based
[3] = biological target: T2, Metabotropic glutamate receptor 5 (Rattus norvegicus, UniProt P31424); experiment: Positive allosteric modulation of rat mGlu5 receptor expressed in HEK293 cells assessed as increase in calcium mobilization after 60 secs in presence of glutamate by Fluo-4 AM dye-based fluorescence assay; format: functional, cell-based
D(2) dopamine receptor [4] = biological target: T3, D(2) dopamine receptor (Homo sapiens, UniProt P14416); experiment: Agonist activity at dopamine D2 receptor (unknown origin) expressed in HEK293T cells co-expressing luciferase based cAMP biosensor assessed as inhibition of forskolin-mediated cAMP accumulation at 1 uM after 15 mins by microbeta luminescence counting assay relative to control; format: functional, cell-based
D(2) dopamine receptor [5] = biological target: T3, D(2) dopamine receptor; experiment: Agonist activity at human dopamine D2long receptor (unknown origin) expressed in HEK293T cells co-expressing TEV fused-beta-Arrestin2 and GRK2 assessed as increase in beta-arrestin-2 recruitment at 1 uM after overnight incubation by Tango assay relative to control; format: cell-based
D(2) dopamine receptor [6] = biological target: T3, D(2) dopamine receptor; experiment: Agonist activity at dopamine D2 receptor (unknown origin) expressed in HEK293T cells co-expressing luciferase based cAMP biosensor assessed as inhibition of forskolin-mediated cAMP accumulation after 15 mins by microbeta luminescence counting assay; format: functional, cell-based
D(2) dopamine receptor [7] = biological target: T3, D(2) dopamine receptor; experiment: Agonist activity at human dopamine D2long receptor (unknown origin) expressed in HEK293T cells co-expressing TEV fused-beta-Arrestin2 and GRK2 assessed as increase in beta-arrestin-2 recruitment after overnight incubation by Tango assay; format: cell-based
D(2) dopamine receptor [8] = biological target: T3, D(2) dopamine receptor; experiment: Ratio of EC50 for dopamine D2 receptor (unknown origin) expressed in HEK293T cells co-expressing luciferase based cAMP biosensor assessed as inhibition of forskolin-mediated cAMP accumulation to EC50 for human dopamine D2long receptor (unknown origin) expressed in HEK293T cells co-expressing TEV fused-beta-Arrestin2 and GRK2 assessed as increase in beta-arrestin-2 recruitment; format: functional, cell-based
[9] = biological target: T2, Metabotropic glutamate receptor 5; experiment: Positive allosteric modulation of rat mGlu5 receptor expressed in HEK293 cells assessed as increase in calcium mobilization; format: functional, cell-based
Apelin receptor [10] = biological target: T4, Apelin receptor (Homo sapiens, UniProt P35414); experiment: Agonist activity at human APJ receptor by saphenous vein contraction assay
T4 sequence (P35414 whole entry): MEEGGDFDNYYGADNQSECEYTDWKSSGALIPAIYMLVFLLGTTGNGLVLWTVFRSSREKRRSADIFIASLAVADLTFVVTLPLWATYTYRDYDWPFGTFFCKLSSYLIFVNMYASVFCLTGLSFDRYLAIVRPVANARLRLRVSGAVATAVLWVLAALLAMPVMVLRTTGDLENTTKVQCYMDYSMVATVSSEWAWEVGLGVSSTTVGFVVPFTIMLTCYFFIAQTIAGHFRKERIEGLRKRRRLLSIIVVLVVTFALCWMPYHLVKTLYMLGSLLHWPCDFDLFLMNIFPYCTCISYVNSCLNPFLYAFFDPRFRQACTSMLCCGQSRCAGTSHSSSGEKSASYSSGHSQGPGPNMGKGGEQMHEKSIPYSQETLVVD

Apelin receptor [11] = biological target: T4, Apelin receptor; experiment: Agonist activity at human APJ receptor assessed as increase in beta-arrestin recruitment
Apelin receptor [12] = biological target: T4, Apelin receptor; experiment: Induction of human APJ receptor internalization by cell based assay
[13] = biological target: T5, Type-1 angiotensin II receptor (Homo sapiens, UniProt P30556); experiment: Agonist activity at human AT1 receptor assessed as increase in beta-arrestin recruitment by chemiluminescent assay
T5 sequence (P30556 whole entry): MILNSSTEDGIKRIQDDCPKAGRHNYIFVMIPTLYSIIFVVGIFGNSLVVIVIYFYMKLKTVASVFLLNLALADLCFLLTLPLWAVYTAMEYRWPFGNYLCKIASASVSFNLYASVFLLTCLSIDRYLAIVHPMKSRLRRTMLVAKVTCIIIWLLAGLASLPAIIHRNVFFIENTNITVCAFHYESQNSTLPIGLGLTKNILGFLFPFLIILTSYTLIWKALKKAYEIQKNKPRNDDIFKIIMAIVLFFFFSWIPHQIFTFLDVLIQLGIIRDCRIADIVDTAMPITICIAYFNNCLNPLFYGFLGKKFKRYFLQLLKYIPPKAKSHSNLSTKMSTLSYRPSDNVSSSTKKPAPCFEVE

CHO = experiment: Cytoprotection against glutamate-induced cell death in CHO cells assessed as increase in cell viability by colorimetric assay; format: functional, cell-based; settings: Cricetulus griseus
Apelin receptor [14] = biological target: T4, Apelin receptor; experiment: Agonist activity at GFP10 tagged human APJ receptor expressed in HEK293 cells harboring Rluc2-Galpha0A/GFP10-Ggamma/Gbeta1 after 5 mins by BRET assay; format: cell-based
Apelin receptor [15] = biological target: T4, Apelin receptor; experiment: Agonist activity at human APJ receptor expressed in HEK293 cells harboring Rluc2-beta-arrestin2 assessed as increase in beta-arrestin2 recruitment after 30 mins by BRET-based luciferase reporter gene assay; format: cell-based
Apelin receptor [16] = biological target: T4, Apelin receptor; experiment: Agonist activity at GFP10 tagged human APJ receptor expressed in HEK293 cells harboring Rluc2-beta-arrestin1 assessed as increase in beta-arrestin1 recruitment after 30 mins by BRET-based luciferase reporter gene assay; format: cell-based
Apelin receptor [17] = biological target: T4, Apelin receptor; experiment: Agonist activity at GFP10 tagged human APJ receptor expressed in HEK293 cells harboring Rluc2-Galphai1/GFP10-Ggamma/Gbeta1 after 5 mins by BRET assay; format: cell-based
[18] = biological target: Metabotropic glutamate receptor 5 (Homo sapiens, UniProt P41594); experiment: Agonist activity at mGlu5 receptor (unknown origin) expressed in CHO cells assessed as increase in Gq-mediated PI hydrolysis after 45 mins by yttrium scintillation proximity assay; format: cell-based
Sequence of Metabotropic glutamate receptor 5 (Homo sapiens, UniProt P41594) (P41594 whole entry): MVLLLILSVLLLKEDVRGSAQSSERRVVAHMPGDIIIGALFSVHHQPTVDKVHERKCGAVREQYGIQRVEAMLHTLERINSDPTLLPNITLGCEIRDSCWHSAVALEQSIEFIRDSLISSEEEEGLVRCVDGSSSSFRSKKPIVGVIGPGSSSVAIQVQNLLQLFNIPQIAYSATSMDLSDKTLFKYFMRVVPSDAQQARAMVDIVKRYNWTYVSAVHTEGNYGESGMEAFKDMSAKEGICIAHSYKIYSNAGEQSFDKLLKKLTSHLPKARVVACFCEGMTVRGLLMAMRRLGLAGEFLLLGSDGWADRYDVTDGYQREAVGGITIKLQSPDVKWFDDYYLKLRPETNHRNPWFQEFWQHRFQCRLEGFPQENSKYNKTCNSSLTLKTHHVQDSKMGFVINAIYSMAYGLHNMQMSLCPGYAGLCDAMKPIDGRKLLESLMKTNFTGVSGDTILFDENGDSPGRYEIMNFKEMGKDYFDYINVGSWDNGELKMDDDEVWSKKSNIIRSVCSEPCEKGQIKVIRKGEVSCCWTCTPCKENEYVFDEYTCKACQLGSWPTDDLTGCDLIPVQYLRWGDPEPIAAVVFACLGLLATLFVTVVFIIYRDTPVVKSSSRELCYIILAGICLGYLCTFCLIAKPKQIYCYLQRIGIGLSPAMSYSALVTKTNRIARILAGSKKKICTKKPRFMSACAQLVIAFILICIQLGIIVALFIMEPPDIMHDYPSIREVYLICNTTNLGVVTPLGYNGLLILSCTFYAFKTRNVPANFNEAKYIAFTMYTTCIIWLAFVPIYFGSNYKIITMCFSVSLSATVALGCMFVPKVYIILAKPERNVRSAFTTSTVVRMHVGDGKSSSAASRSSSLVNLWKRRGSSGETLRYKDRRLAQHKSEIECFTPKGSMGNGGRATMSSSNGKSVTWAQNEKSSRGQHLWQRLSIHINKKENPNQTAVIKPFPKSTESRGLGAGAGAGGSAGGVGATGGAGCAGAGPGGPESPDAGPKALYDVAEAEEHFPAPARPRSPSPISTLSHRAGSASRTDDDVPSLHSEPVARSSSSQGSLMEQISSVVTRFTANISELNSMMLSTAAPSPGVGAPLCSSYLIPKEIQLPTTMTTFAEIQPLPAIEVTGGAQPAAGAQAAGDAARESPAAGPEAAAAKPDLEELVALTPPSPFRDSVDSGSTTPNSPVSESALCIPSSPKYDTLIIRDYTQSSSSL

T3 sequence (P14416 whole entry, the tested form may be a part): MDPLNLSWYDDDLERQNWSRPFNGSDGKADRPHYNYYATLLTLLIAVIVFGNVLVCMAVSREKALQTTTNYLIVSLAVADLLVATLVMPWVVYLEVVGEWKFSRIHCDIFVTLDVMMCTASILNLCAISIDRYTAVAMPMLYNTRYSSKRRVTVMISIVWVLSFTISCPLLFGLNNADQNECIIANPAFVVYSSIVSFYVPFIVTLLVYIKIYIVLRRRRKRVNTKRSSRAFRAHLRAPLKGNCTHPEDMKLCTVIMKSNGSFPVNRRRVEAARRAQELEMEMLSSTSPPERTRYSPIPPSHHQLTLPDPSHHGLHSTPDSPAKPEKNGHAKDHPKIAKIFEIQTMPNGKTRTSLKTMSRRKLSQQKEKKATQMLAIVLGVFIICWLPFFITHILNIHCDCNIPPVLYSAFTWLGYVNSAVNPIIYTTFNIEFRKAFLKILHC
T1 sequence (P34975 whole entry): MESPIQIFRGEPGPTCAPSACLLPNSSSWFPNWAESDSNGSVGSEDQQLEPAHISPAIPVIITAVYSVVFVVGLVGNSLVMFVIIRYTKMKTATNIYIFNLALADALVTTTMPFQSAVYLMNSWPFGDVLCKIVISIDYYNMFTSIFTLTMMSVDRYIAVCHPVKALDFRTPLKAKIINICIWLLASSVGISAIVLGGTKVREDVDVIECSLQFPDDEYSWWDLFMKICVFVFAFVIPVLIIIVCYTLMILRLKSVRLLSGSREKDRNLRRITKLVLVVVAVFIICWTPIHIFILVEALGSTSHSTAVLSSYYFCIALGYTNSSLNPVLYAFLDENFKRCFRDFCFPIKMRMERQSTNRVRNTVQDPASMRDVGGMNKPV
T2 sequence (P31424 whole entry): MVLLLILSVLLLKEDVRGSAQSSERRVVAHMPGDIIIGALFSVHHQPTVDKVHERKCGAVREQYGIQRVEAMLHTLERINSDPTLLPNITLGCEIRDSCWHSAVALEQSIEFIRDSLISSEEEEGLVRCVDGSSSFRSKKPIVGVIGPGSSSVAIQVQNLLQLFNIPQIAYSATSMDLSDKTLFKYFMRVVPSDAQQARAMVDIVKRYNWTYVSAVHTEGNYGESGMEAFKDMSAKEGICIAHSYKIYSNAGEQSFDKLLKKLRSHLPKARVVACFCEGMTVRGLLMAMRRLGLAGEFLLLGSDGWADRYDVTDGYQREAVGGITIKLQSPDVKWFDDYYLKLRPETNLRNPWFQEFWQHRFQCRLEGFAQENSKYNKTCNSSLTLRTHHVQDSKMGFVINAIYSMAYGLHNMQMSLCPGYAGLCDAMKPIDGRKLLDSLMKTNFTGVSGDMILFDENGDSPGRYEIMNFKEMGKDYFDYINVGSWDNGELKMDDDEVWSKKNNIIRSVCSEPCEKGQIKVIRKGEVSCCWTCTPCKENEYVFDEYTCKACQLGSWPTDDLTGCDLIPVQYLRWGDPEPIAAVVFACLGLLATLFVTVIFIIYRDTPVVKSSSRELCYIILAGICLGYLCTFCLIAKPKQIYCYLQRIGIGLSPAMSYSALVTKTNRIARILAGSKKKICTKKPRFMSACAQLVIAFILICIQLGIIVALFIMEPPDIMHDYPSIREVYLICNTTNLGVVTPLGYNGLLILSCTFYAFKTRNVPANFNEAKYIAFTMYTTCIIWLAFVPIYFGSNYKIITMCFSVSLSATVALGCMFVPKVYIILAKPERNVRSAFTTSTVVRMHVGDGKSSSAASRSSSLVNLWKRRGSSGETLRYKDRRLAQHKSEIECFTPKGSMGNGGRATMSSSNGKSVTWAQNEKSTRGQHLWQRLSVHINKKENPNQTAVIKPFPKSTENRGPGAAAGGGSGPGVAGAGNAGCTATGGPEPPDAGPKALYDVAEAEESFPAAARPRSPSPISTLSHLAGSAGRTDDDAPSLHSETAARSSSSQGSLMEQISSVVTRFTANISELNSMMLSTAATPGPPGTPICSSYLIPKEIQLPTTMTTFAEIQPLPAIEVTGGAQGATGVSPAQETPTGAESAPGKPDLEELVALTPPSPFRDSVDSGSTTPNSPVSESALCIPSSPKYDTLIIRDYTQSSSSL

`CN(C(=O)/C=C/c1ccoc1)[C@@H]1CC[C@@]2(O)[C@H]3Cc4ccc(O)c5c4[C@@]2(CCN3CC2CC2)[C@H]1O5` [NALFURAFINE] showed an EC50 [1] of 0.5 nM and an EC50 [2] of 5.2 nM.
For `O=C(Nc1ccc(Cl)cc1CN1C(=O)c2cccc(F)c2C1=O)c1ccccn1`, the EC50 [3] was 214 nM.
In the case of `Cc1cc2c(N3CCN(CCCCOc4ccc5c(c4)NC(=O)CC5)CC3)cccc2n1C`, the Emax (D(2) dopamine receptor [4]) is reported as 60%, the Emax (D(2) dopamine receptor [5]) is reported as 78% and the EC50 (D(2) dopamine receptor [6]) is reported as 23 nM. The EC50 (D(2) dopamine receptor [7]) was 2.9 nM and the Ratio EC50 (D(2) dopamine receptor [8]) was 20.
`O=C(c1ccc(F)cc1)N1CCc2nc(COc3ccccc3)oc2C1` gave an EC50 [9] of 235 nM.
`CSCC[C@H](NC(=O)[C@@H]1CCCN1C(=O)CNC(=O)[C@H](CCCCN)NC(=O)[C@H](Cc1cnc[nH]1)NC(=O)[C@@H]1CSSC[C@H](N)C(=O)N[C@@H](CCCNC(=N)N)C(=O)N2CCC[C@H]2C(=O)N[C@@H](CCCNC(=N)N)C(=O)N[C@@H](CC(C)C)C(=O)N1)C(=O)N1CCC[C@H]1C(=O)N[C@@H](Cc1ccccc1)C(=O)O` (H-CRPRLCHKGPMPF-OH; disulfide 1-6) gave an EC50 (Apelin receptor [10]) of 0.288 nM, an EC50 (Apelin receptor [11]) of 2140 nM and an EC50 (Apelin receptor [12]) of 692 nM.
`CC[C@H](C)[C@H](NC(=O)[C@@H](NC(=O)[C@H](CCCNC(=N)N)NC(=O)CNC)C(C)C)C(=O)N[C@@H](CCCCN)CN[C@@H](Cc1cnc[nH]1)C(=O)N1CCC[C@H]1C(=O)N[C@H](C)C(=O)O` (H-[Sar]RVI-X1) showed an EC50 [13] of 17 nM.
Work on `N[C@@H](CCC(=O)O)C(=O)O` [GLUTAMIC ACID] yielded an EC50 (CHO) of 153000 nM.
In the case of `CC(C)C[C@H](NC(=O)[C@H](CCCCN)NC(=O)[C@@H]1CCCN1C(=O)[C@@H](N)CCCCN)C(=O)N[C@@H](CO)C(=O)N[C@@H]1CC=CCC[C@@H](C(=O)N[C@@H](Cc2ccc(OCc3ccccc3)cc2)C(=O)O)NC(=O)[C@@H]2CCCN2C(=O)CNC(=O)[C@H](CCCCN)NC1=O`, the EC50 (Apelin receptor [14]) is reported as 50 nM, the EC50 (Apelin receptor [15]) is reported as > 10000 nM and the EC50 (Apelin receptor [16]) is reported as > 10000 nM. For the same molecule, the EC50 (Apelin receptor [17]) was 56 nM.
Molecule `N[C@@H](Cn1oc(=O)[nH]c1=O)C(=O)O` [QUISQUALATE] has an EC50 [18] of 630 nM.
